In patent US8188139B2, “Heterocyclic-substituted phenyl methanones” (Hoffman-La Roche Inc., priority 2005, dated 2012):

These molecules were tested against T1, mGlyT-1b (Mus musculus, UniProt P28571) (assay: Glycine uptake inhibition assay (mGlyT-1b)). Conditions: inhibition of [3H]-glycine uptake in Flp-in-CHO cells transfected with mGlyT-1b cDNA; 20 min preincubation at 22° C.; read-out: IC50 (μM) at GlyT-1.
T1 construct: host or cells: Flp-in-CHO
T1 sequence (P28571 1-651 isoform P28571-2): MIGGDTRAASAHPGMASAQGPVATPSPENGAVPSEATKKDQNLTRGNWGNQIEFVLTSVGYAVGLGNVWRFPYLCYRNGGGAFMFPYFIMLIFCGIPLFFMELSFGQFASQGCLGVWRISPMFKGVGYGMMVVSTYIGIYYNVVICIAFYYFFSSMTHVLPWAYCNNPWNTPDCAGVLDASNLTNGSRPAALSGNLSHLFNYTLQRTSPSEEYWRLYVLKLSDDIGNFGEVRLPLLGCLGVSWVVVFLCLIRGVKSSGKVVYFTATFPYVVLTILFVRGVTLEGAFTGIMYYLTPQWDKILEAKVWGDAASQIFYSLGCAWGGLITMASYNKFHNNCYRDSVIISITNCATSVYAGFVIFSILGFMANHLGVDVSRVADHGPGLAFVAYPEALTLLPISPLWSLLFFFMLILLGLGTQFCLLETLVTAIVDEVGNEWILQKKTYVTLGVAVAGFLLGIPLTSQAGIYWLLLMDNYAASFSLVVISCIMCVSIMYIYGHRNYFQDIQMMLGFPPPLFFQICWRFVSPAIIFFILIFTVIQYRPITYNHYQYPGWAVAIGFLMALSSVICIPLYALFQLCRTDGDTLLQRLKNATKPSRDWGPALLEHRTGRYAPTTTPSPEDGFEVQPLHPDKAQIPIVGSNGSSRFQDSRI
Format: cell-based
Procedure: DMEM complete medium: Nutrient mixture F-12 (Gibco Life-technologies), fetal bovine serum (FBS) 5%, (Gibco life technologies), Penicillin/Streptomycin1% (Gibco life technologies), Hygromycin 0.6 mg/ml (Gibco life technologies), Glutamine 1 mM Gibco life technologies)
Uptake buffer (UB): 150 mM NaCl, 10 mM Hepes-Tris, pH 7.4, 1 mM CaCl2, 2.5 mM KCl, 2.5 mM MgSO4, 10 mM (+) D-glucose.
Flp-in™-CHO (Invitrogen Cat n^o R758-07) cells stably transfected with mGlyT1b cDNA.
Glycine Uptake Inhibition Assay (mGlyT-1b)
On day 1 mammalian cells, (Flp-in™-CHO), transfected with mGlyT-1b cDNA, were plated at the density of 40,000 cells/well in complete F-12 medium, without hygromycin in 96-well culture plates. On day 2, the medium was aspirated, and the cells were washed twice with uptake buffer (UB). The cells were then incubated for 20 min at 22° C. with either (i) no potential competitor, (ii) 10 mM non-radioactive glycine, (iii) a concentration of a potential inhibitor. A range of concentrations of the potential inhibitor was used to generate data for calculating the concentration of inhibitor resulting in 50% of the effect (e.g. IC50, the concentration of the competitor inhibiting glycine uptake of 50%). A solution was then immediately added containing [^3H]-glycine 60 nM (11-16 Ci/mmol) and 25 μM non-radioactive glycine. The plates were incubated with gentle shaking, and the reaction was stopped by aspiration of the mixture and washing (three times) with ice-cold UB. The cells were lysed with scintillation liquid, shaken 3 hours, and the radioactivity in the cells was counted using a scintillation counter.

In order of rising IC50:
1. Cc1cc(-c2ccc3c(c2)CN(C(=O)c2cc(S(C)(=O)=O)ccc2O[C@@H](C)C(F)(F)F)C3)ccn1 [Example 169, [5-Methanesulfonyl-2-((S)-2,2,2-trifluoro-1-methyl-ethoxy)-phenyl]-[5-(2-methyl-pyridin-4-yl)-1,3-dihydro-isoindol-2-yl]-methanone]  0.003 µM
2. C[C@@H](Oc1ccc(S(C)(=O)=O)cc1C(=O)N1Cc2cc(C(F)(F)F)cnc2C1)C(F)(F)F [Example 139, [5-Methanesulfonyl-2-((R)-2,2,2-trifluoro-1-methyl-ethoxy)-phenyl]-(3-trifluoro-methyl-5,7-dihydro-pyrrolo[3,4-b]pyridin-6-yl)-methanone]  0.014 µM
3. CS(=O)(=O)c1ccc(-c2ccccc2)c(C(=O)N2CCc3c(C#N)cccc32)c1 [Example 204, 1-(4-Methanesulfonyl-biphenyl-2-carbonyl)-2,3-dihydro-1H-indole-4-carbonitrile]  0.019 µM
4. C[C@H](Oc1ccc(S(C)(=O)=O)cc1C(=O)N1Cc2cc(F)c(C(F)(F)F)cc2C1)C(F)(F)F [Example 224, (5-Fluoro-6-trifluoromethyl-1,3-dihydro-isoindol-2-yl)-[5-methanesulfonyl-2-((S)-2,2,2-trifluoro-1-methyl-ethoxy)-phenyl]-methanone]  0.019 µM
5. COc1cc2c(cc1Cl)CN(C(=O)c1cc(S(C)(=O)=O)ccc1OCC(C)C)C2 [Example 221, (5-Chloro-6-methoxy-1,3-dihydro-isoindol-2-yl)-(2-isobutoxy-5-methanesulfonyl-phenyl)-methanone]  0.022 µM
6. CS(=O)(=O)c1ccc(OCC2CCC2)c(C(=O)N2Cc3cc(Cl)c(N4CCOCC4)cc3C2)c1 [Example 249, (5-Chloro-6-morpho-lin-4-yl-1,3-dihydro-isoindol-2-yl)-(2-cyclobutylmethoxy-5-methanesulfonyl-phenyl)-methanone]  0.022 µM
7. CS(=O)(=O)c1ccc(OCC(F)(F)C(F)F)c(C(=O)N2Cc3cc(C(F)(F)F)cnc3C2)c1 [Example 158, [5-Methanesulfonyl-2-(2,2,3,3-tetrafluoro-propoxy)-phenyl]-(3-trifluoromethyl-5,7-dihydro-pyrrolo[3,4-b]pyridin-6-yl)-methanone]  0.024 µM
8. CS(=O)(=O)c1ccc(OCC(F)(F)C(F)(F)F)c(C(=O)N2Cc3cc(C(F)(F)F)cnc3C2)c1 [Example 157, [5-Methanesulfonyl-2-(2,2,3,3,3-pentafluoro-propoxy)-phenyl]-(3-trifluoromethyl-5,7-dihydro-pyrrolo[3,4-b]pyridin-6-yl)-methanone]  0.025 µM
9. CC(C)COc1ccc(S(C)(=O)=O)cc1C(=O)N1Cc2cc(Cl)c(N3CCOCC3)cc2C1 [Example 248, (5-Chloro-6-morpho-lin-4-yl-1,3-dihydro-isoindol-2-yl)-(2-isobutoxy-5-methanesulfonyl-phenyl)-methanone]  0.026 µM
10. CC(C)COc1ccc(S(C)(=O)=O)cc1C(=O)N1Cc2cc(C(F)(F)F)cnc2C1 [Example 125, (2-Isobutoxy-5-methanesulfonyl-phenyl)-(3-trifluoromethyl-5,7-dihydro-pyrrolo[3,4-b]pyridin-6-yl)-methanone]  0.03 µM
11. C[C@H](Oc1ccc(S(C)(=O)=O)cc1C(=O)N1Cc2ccc(-c3nccs3)cc2C1)C(F)(F)F [Example 172, [5-Methanesulfonyl-2-((S)-2,2,2-trifluoro-1-methyl-ethoxy)-phenyl]-(5-thiazol-2-yl-1,3-dihydro-isoindol-2-yl)-methanone]  0.03 µM
12. CS(=O)(=O)c1ccc(-c2ccc(F)c(F)c2)c(C(=O)N2Cc3cc(C(F)(F)F)cnc3C2)c1 [Example 148, (3′,4′-Difluoro-4-methanesulfonyl-biphenyl-2-yl)-(3-trifluoromethyl-5,7-dihydro-pyrrolo[3,4-b]pyridin-6-yl)-methanone]  0.032 µM
13. Cc1csc(-c2ccc3c(c2)CN(C(=O)c2cc(S(C)(=O)=O)ccc2O[C@@H](C)C(F)(F)F)C3)n1 [Example 168, [5-Methanesulfonyl-2-((S)-2,2,2-trifluoro-1-methyl-ethoxy)-phenyl]-[5-(4-methyl-thiazol-2-yl)-1,3-dihydro-isoindol-2-yl]-methanone]  0.033 µM
14. C[C@H](Oc1ccc(S(C)(=O)=O)cc1C(=O)N1CCc2c(Br)cccc21)C(F)(F)F [Example 211, (4-Bromo-2,3-dihydro-indol-1-yl)-[5-methanesulfonyl-2-((S)-2,2,2-trifluoro-1-methyl-ethoxy)-phenyl]-methanone]  0.034 µM
15. CS(=O)(=O)c1ccc(-c2ccc(F)cc2)c(C(=O)N2Cc3cc(C(F)(F)F)cnc3C2)c1 [Example 140, (4′-Fluoro-4-methanesulfonyl-biphenyl-2-yl)-(3-trifluoromethyl-5,7-dihydro-pyrrolo[3,4-b]pyridin-6-yl)-methanone]  0.036 µM
16. CCSc1cc2c(cc1C(F)(F)F)CN(C(=O)c1cc(S(C)(=O)=O)ccc1O[C@@H](C)C(F)(F)F)C2 [Example 217, (5-Ethylsulfanyl-6-trifluoromethyl-1,3-dihydro-isoindol-2-yl)-[5-methanesulfonyl-2-((S)-2,2,2-trifluoro-1-methyl-ethoxy)-phenyl]-methanone]  0.037 µM
17. COc1cc2c(cc1Cl)CN(C(=O)c1cc(S(C)(=O)=O)ccc1O[C@H](C)C(F)(F)F)C2 [Example 218, (5-Chloro-6-methoxy-1,3-dihydro-isoindol-2-yl)-[5-methane-sulfonyl-2-((R)-2,2,2-trifluoro-1-methyl-ethoxy)-phenyl]-methanone]  0.04 µM
18. COC(=O)c1cccc2c1CCN2C(=O)c1cc(S(C)(=O)=O)ccc1OC(C)C [Example 206, 1-(2-Isopropoxy-5-methanesulfonyl-benzoyl)-2,3-dihydro-1#H!-indole-4-carboxylic acid methyl ester]  0.041 µM
19. CS(=O)(=O)c1ccc(OCC(F)(F)C(F)(F)F)c(C(=O)N2Cc3cnc(C(F)(F)F)cc3C2)c1 [Example 155, [5-Methanesulfonyl-2-(2,2,3,3,3-pentafluoro-propoxy)-phenyl]-(6-trifluoromethyl-1,3-dihydro-pyrrolo[3,4-c]pyridin-2-yl)-methanone]  0.044 µM
20. Cc1nc2c(cc1C(F)(F)F)CN(C(=O)c1cc(S(C)(=O)=O)ccc1O[C@@H](C)C(F)(F)F)C2 [Example 163, [5-Methanesulfonyl-2-((S)-2,2,2-trifluoro-1-methyl-ethoxy)-phenyl]-(2-methyl-3-trifluoromethyl-5,7-dihydro-pyrrolo[3,4-b]pyridin-6-yl)-methanone]  0.045 µM
21. CCOc1cc2c(cc1C(F)(F)F)CN(C(=O)c1cc(S(C)(=O)=O)ccc1OC(C)C)C2 [Example 240]  0.0456 µM
22. COC(=O)c1cccc2c1CCN2C(=O)c1cc(S(C)(=O)=O)ccc1O[C@@H](C)C(F)(F)F [Example 205, 1-[5-Methanesulfonyl-2-((S)-2,2,2-trifluoro-1-methyl-ethoxy)-benzoyl]-2,3-dihydro-1H-indole-4-carboxylic acid methyl ester]  0.046 µM
23. CS(=O)(=O)c1ccc(-c2ccc(F)c(F)c2)c(C(=O)N2Cc3cnc(C(F)(F)F)cc3C2)c1 [Example 146, (3′,4′-Difluoro-4-methanesulfonyl-biphenyl-2-yl)-(6-trifluoromethyl-1,3-dihydro-pyrrolo[3,4-c]pyridin-2-yl)-methanone]  0.047 µM
24. CS(=O)(=O)c1ccc(OCC(F)(F)C(F)F)c(C(=O)N2Cc3cnc(C(F)(F)F)cc3C2)c1 [Example 156, [5-Methanesulfonyl-2-(2,2,3,3-tetrafluoro-propoxy)-phenyl]-(6-trifluoromethyl-1,3-dihydro-pyrrolo[3,4-c]pyridin-2-yl)-methanone]  0.047 µM
25. Cc1cc(-c2ccc3c(c2)CN(C(=O)c2cc(S(C)(=O)=O)ccc2O[C@@H](C)C(F)(F)F)C3)cs1 [Example 170, [5-Methanesulfonyl-2-((S)-2,2,2-trifluoro-1-methyl-ethoxy)-phenyl]-[5-(5-methyl-thiophen-3-yl)-1,3-dihydro-isoindol-2-yl]-methanone]  0.048 µM
